# Tests used:
# kinome = assay: Kinome profiling (KINOMEscan); assay type: binding
# Experimental: WNTinib's inhibitory profile was performed using Eurofins' (DiscoverX) KINOMVEscan platform. Inhibition trees were visualized using KinMap (Eid et al., “KinMap: A Web-Based Tool for Interactive Navigation through Human Kinome Data,” BMC 10 Bioinformatics 18(1):16 (2017), which is hereby incorporated by reference in its entirety). For regorafenib and sorafenib, publicly available data was used to visualize inhibition trees (Uitdehaag et al., “Comparison of the Cancer Gene Targeting and Biochemical Selectivities of All Targeted Kinase Inhibitors Approved for Clinical Use,” Plos ONE 9(3):e92146 (2014) and Davis et al., “Comprehensive Analysis of Kinase Inhibitor Selectivity,” Nat. Biotechnol. 29(11):1046-1051 (2011), which are hereby incorporated by reference in their entirety).
# [1] = tested on: immune cell tumor infiltration; assay: Immune cell profiling of tumors by spectral cytometry; assay type: in vivo, mouse; details: compared to vehicle or standard of care (sorafenib); six days after start of dosing
# Experimental: FIGS. 14A-14G show results pertaining the use of WNTinib in combination with immunotherapy. […] C57/BL6 mice were randomized into treatment groups using IVIS imaging to quantify tumor size based on luminescence signal intensity. After randomization, kinase inhibitors were dissolved in 25% cremaphor:ethanol in water and administered orally (30 mg/kg sorafenib, 20 mg/kg WNTinib) beginning 7 days after injection following 5 days on/2 days off dosing schedule. Immunotherapy (anti-PD-1) was administered via intraperitoneal injection on days 11, 13, and 15 after injection at 200 μg. Log-rank p-values for survival in drug treatment groups to vehicle group and median survival are shown. Mice were assigned to different treatment groups as follows: vehicle (25), sorafenib (10), aPD-1 (15), WNTinib (25), and WNTinib+aPD-1 (25). […] Significant differences between groups indicated by asterisks. ** P<0.005, *** P<0.0005, as calculated with an ANOVA with Tukey test for multiple comparisons. Animals were dosed via daily oral gavage using 20 mg/kg of WNTinib and 30 mg/kg of sorafenib. […] 3 animals per indicated groups were assessed using spectral cytometry panels for both lymphocytes and myeloid cells. […]
# Next, the effect of WNTinib on immune cell tumor infiltration was evaluated.
# [2] = tested on: cytoplasmic kinases including BRAF and p38α/β; assay: NanoBRET live cell target engagement, cytoplasmic kinases; assay type: cell-based; details: relative to sorafenib and regorafenib
# Experimental: For NanoBRET™ dose response experiments, SNU398 cells were transfected with a MAPK14-NanoLuc© Fusion Vector according to the Promega NanoBRET™ TE Intracellular Kinase Assay protocol. Following overnight transfection, cells were trypsinized and redistributed on a white 96-well plate (20,000 cells per well). Cells were incubated with 1 μM of K-4 Tracer and sorafenib or WNTinib at doses ranging from 0.02→20 μM for two hours. After drug incubation, plates were equilibrated to room temperature for 15 minutes, and NanoBRET™ Nano-Glo© Substrate and Extracellular NanoLuc© Inhibitor were added to wells. Bioluminescent donor (NanoLuc© luciferase) and fluorescent acceptor (Tracer) emission were measured on a GloMax plate reader at 450 and 600 nm, respectively. BRET ratio is reported as acceptor signal divided by the donor signal for each well. Conditions were evaluated in technical triplicates for each experiment, and experiments were repeated in biological duplicates. […] The plate was continuously read on a GloMax plate reader for 2 hours to record BRET signal from the association of the K-4 Tracer with the MAPK14-NanoLuc© Fusion Vector. Conditions were evaluated in technical triplicates, and experiments were repeated in biological duplicates.
# In order to characterize the direct targets of WNTinib, kinome selectivity profiles were first assessed by in vitro kinase assays. […]
compound,measurement,setting,value
"CNC(=O)c1cc(Oc2ccc(NC(=O)Nc3ccc(C(F)(F)C(F)(F)F)cc3)c(F)c2)ccn1 [WNTinib, 4-(3-fluoro-4-(3-(4-(perfluoroethyl)phenyl)ureido)phenoxy)-N-methylpicolinamide]",kinome selectivity (selectivity scores),kinome; compared with sorafenib and regorafenib,generally less promiscuous than the parental compounds
same,kinase targets maintained,kinome; in vitro kinase assays,"maintains several of the proposed key targets of sorafenib and regorafenib, including c-KIT, PDGFRα/β, VEGFR1/2, RET and FLT3"
same,immune cell tumor infiltration,[1],"significantly increase the number of CD45^+ cells, the ratio of CD4/CD8, and the number of neutrophils and reduce the number of B cells and immunosuppressed tissue associated macrophages (TAM) in tumors"
same,target engagement potency on cytoplasmic kinases BRAF and p38α/β,[2],markedly less potent than sorafenib and regorafenib

# Reference: patent US20230404985A1, “METHODS OF TREATING TUMORS AND CANCERS HAVING DYSREGULATED WNT SIGNALING PATHWAYS” (ICAHN SCHOOL OF MEDICINE AT MOUNT SINAI, priority 2020, published 2023)
